Drawing on the OPERA property sets (Mansouri et al. 2018), this text covers solubility for 70 compounds.

Values after ≈ are worked out from the molar mass of the structure shown.

Settings in one data set: not given
As a reminder, the solubility is the concentration that dissolves in the medium under given conditions. A high value points to much dissolved substance. Take `C[C@H]1NC(=O)[C@@H](C)NC1=O`: the solubility was determined as 703 mM (≈ 100000 µg/mL).

On to `CCCCOC(=O)CCO`, for which the solubility was found to be 51.3 mM (≈ 7500 µg/mL).

Take `NNC(=O)c1nccs1`: the solubility stood at 210 mM (≈ 30000 µg/mL).

Regarding `CC(=O)C(=Cc1ccccc1)CC(=O)O`, the solubility came out at 24.5 mM (≈ 5000 µg/mL).

Consider `O=C(O)C1=CCCc2ccccc21`, for which the solubility came out at 1.61 mM (≈ 280 µg/mL). This solubility lies about 15-fold lower than the previous one.

`CCCOC(=O)C(C)(C)O` gave a solubility of 684 mM (≈ 100000 µg/mL). This solubility is about 420-fold higher than that of the compound before.

As to `CC(C)SS(=O)C(C)C` (stereo not given), the solubility turned out to be 150 mM (≈ 25000 µg/mL).

As to `O=C(O)C(Cl)(Cl)CCCl`, the solubility was found to be 261 mM (≈ 50000 µg/mL).

For the compound `NCCc1ccc(O)c([N+](=O)[O-])c1`, the solubility came out at 45.7 mM (≈ 8330 µg/mL).

Take `Oc1ccccc1Oc1ccccc1`: the solubility amounted to 0.591 mM (≈ 110 µg/mL).

`COCCOC(=O)CCCCC(=O)OCCOC` displayed a solubility of 54.1 mM (≈ 14200 µg/mL). Against the preceding compound, the solubility is about 92-fold higher.

`O=C(c1ccc(Cl)cc1Cl)N(O)c1ccccc1`: the solubility was 0.213 mM (≈ 60 µg/mL).

`N#CC1CCCC1=O` (stereo not given) showed a solubility of 440 mM (≈ 48000 µg/mL).

Take `Oc1ncncc1Br`: the solubility stood at 357 mM (≈ 62500 µg/mL).

For `O=C(OC1CCNCC1)c1ccccc1`, the solubility came out at 48.7 mM (≈ 10000 µg/mL). This solubility is about 7.3-fold lower than that of the compound before.

For the compound `CCSS(=O)(=O)CC`, the solubility was determined as 77.8 mM (≈ 12000 µg/mL). This solubility is about 1.6-fold higher than that of the compound before.

On to `CN(C)C1CCC=CCCC1` (stereo not given), for which the solubility was 25.1 mM (≈ 3850 µg/mL).

Consider `O=C(O)c1cc(=O)nc(-c2ccccc2)[nH]1`, for which the solubility is 6.15 mM (≈ 1330 µg/mL).

On to `CCNC(CC)C(=O)O` (stereo not given), for which the solubility amounted to 381 mM (≈ 50000 µg/mL).

For `Cn1cc(I)ccc1=O`, the solubility came to 979 mM (≈ 230000 µg/mL).

For the compound `CC(NC(=O)C=CC(=O)O)C(=O)O` (stereo not given), the solubility was determined as 107 mM (≈ 20000 µg/mL). This solubility lies about 9.1-fold lower than the previous one.

As for `Cc1nc2c(c(=O)[nH]c(=O)n2C)n1C`, the solubility was 286 mM (≈ 55600 µg/mL).

`O=C(c1cccc2ccccc12)N(O)c1ccccc1` came in with a solubility of 0.114 mM (≈ 30 µg/mL).

Compound `CC12CCC(CC1=O)C(C)(C)O2` (stereo not given) registered a solubility of 119 mM (≈ 20000 µg/mL).

Still in this data set, the particulars now being: 20 °C.
Turning to `CCC(C)S` (stereo not given), the solubility turned out to be 14.6 mM (≈ 1320 µg/mL).

Take `S=c1[nH]sc(=S)[nH]1`: the solubility came out at 17.3 mM (≈ 2600 µg/mL). This solubility and that of the compound before are within 1.5-fold of each other.

The compound `CC1NC(C)SC(C)S1` (stereo not given) displayed a solubility of 42.9 mM (≈ 7000 µg/mL). Compared with the last compound, the solubility is about 2.5-fold higher.

The compound `OCc1ccc(O)cc1` returned a solubility of 54 mM (≈ 6700 µg/mL). The solubility values of the last two compounds are within 1.5-fold of each other.

With `CCCCCCCS`, the solubility is 0.07 mM (≈ 9.26 µg/mL).

In the case of `CC1(CCN2CCCCC2)NC(=O)NC1=O` (stereo not given), the solubility was 151 mM (≈ 34000 µg/mL). This solubility is about 2200-fold higher than that of the compound before.

The compound `Clc1ncc2nccnc2n1` showed a solubility of 200 mM (≈ 33300 µg/mL).

As for `CC(=O)NCC(=O)Nc1ccccc1`, the solubility stood at 27.1 mM (≈ 5200 µg/mL).

Compound `OCc1ccc(I)cc1` registered a solubility of 1.79 mM (≈ 420 µg/mL).

`Cc1ccc(OCC(=O)O)cc1` registered a solubility of 7.22 mM (≈ 1200 µg/mL).

As to `O=C1CCCCCN1C(=O)c1ccccc1`, the solubility stood at 6.81 mM (≈ 1480 µg/mL).

`CC(C)C1(Br)C(=O)NC(=O)NC1=O` returned a solubility of 6.18 mM (≈ 1540 µg/mL).

On to `Cn1c(=O)c2n[se]nc2n(C)c1=O`, for which the solubility was found to be 5.02 mM (≈ 1230 µg/mL).

In turn, `Cc1ccc(P(=O)(O)O)c(C)c1` returned a solubility of 80.6 mM (≈ 15000 µg/mL).

Compound `CN[C@@H](Cc1ccc(O)cc1)C(=O)O` came in with a solubility of 7.37 mM (≈ 1440 µg/mL).

`O=C1C=Cc2ccccc2C1=NO` yielded a solubility of 1.16 mM (≈ 200 µg/mL).

The compound `Cc1cc(O)c(C(=O)O)c(O)c1` came in with a solubility of 8.92 mM (≈ 1500 µg/mL).

`CC(=O)Nc1ccc(F)cc1C` gave a solubility of 43.7 mM (≈ 7310 µg/mL).

The compound `CCOC(=O)c1ccccc1C(=O)c1ccccc1` had a solubility of 0.393 mM (≈ 100 µg/mL). Compared with the last compound, the solubility is about 110-fold lower.

Regarding `CC1(C)CO1`, the solubility worked out at 804 mM (≈ 58000 µg/mL).

For the compound `CC(C)COC(=O)c1ccc(N)cc1`, the solubility came to 1.14 mM (≈ 220 µg/mL).

On to `OCc1ccccc1Br`, for which the solubility worked out at 6.95 mM (≈ 1300 µg/mL).

For the compound `O=C(O)COc1cccc(Cl)c1`, the solubility stood at 6.38 mM (≈ 1190 µg/mL).

Turning to `CCC(=O)OCc1ccc(Cl)cc1Cl`, the solubility turned out to be 0.858 mM (≈ 200 µg/mL). Against the preceding compound, the solubility is about 7.4-fold lower.

`CCCCC1(CCCC)C(=O)NC(=O)NC1=O` came in with a solubility of 1.33 mM (≈ 320 µg/mL).

Compound `COC(=O)c1ccc([N+](=O)[O-])cc1C(=O)O` came in with a solubility of 8.79 mM (≈ 1980 µg/mL).

`COC(=O)c1cc(O)c(OC)c(O)c1` had a solubility of 25.2 mM (≈ 5000 µg/mL).

For `CCC(CC)COC(C)=O`, the solubility stood at 44.4 mM (≈ 6400 µg/mL).

Take `Oc1cc2ccccc2cc1C1=NCCN1`: the solubility stood at 0.499 mM (≈ 106 µg/mL). This solubility is about 89-fold lower than that of the compound before.

Consider `C[C@H](NC=O)C(=O)O` (racemic), for which the solubility is 1020 mM (≈ 120000 µg/mL).

`CCC(CC)(CC)NC(N)=O` returned a solubility of 15.2 mM (≈ 2400 µg/mL).

Compound `Nc1nc2c(O)cccc2s1` yielded a solubility of 12 mM (≈ 2000 µg/mL).

As to `OCC(O)C1OC(Oc2ccccc2)C(O)C(O)C1O` (stereo not given), the solubility turned out to be 27.9 mM (≈ 8000 µg/mL). This solubility lies about 2.3-fold higher than the previous one.

The compound `CC(C)(O)CCl` registered a solubility of 1450 mM (≈ 157000 µg/mL).

`Oc1cncc2cccnc12` displayed a solubility of 22 mM (≈ 3220 µg/mL).

`COc1ccc(C(=O)O)cc1C(=O)O` yielded a solubility of 0.765 mM (≈ 150 µg/mL).

`COCc1ccc(C=O)o1`: the solubility was determined as 317 mM (≈ 44400 µg/mL).

On to `NC(=O)NN=C1CCCCC1`, for which the solubility turned out to be 38.7 mM (≈ 6000 µg/mL).

In turn, `Cc1ccc2[nH]c(=O)c(=O)[nH]c2c1` returned a solubility of 0.908 mM (≈ 160 µg/mL).

`O=C(O)CCNC(=O)Nc1ccc([N+](=O)[O-])cc1` gave a solubility of 1.97 mM (≈ 500 µg/mL).

`N#Cc1cccc(N)c1` showed a solubility of 67.7 mM (≈ 8000 µg/mL). This solubility is about 34-fold higher than that of the compound before.

On to `Cc1cc(C)c(OCC(=O)O)c(Br)c1`, for which the solubility was determined as 0.753 mM (≈ 195 µg/mL).

In the case of `O/N=C1\C=CCCC1`, the solubility came to 146 mM (≈ 16200 µg/mL).

In turn, `CCOc1ccc(NC(C)=O)c2cccnc12` showed a solubility of 30.4 mM (≈ 7000 µg/mL).

The compound `O=C(O)C=C(Br)Br` had a solubility of 146 mM (≈ 33500 µg/mL).

`O=C(O)c1ccccc1CO` came in with a solubility of 28.1 mM (≈ 4280 µg/mL).
